Source: PubChem BioAssay AID1963441 (Molecular Pharmacology Branch, DTP, NCI, 2024)
“And” between values parts separate entries of the source, which are not always exact repeats. Identical values can stand only once.

Test system: NCI-H1876 complex spheroid growth, % test/control
Test: Anticancer human tumor NCI-H1876 cell line growth inhibition [Asc];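 further: compound exposure lasted 7 days starting three days after seeding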;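 on viability, T/C: 100% = DMSO vehicle control wells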
Conditions: for viability, T/C: stronger effect = lower value
In short: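 Tumor cells were grown as complex spheroids with human endothelial cells (HUVEC) and human mesenchymal stem cells as stroma. Agents were tested alone and in combination, in half-log steps down from the clinical Cmax, or from 10 microM where Cmax was unknown.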

[1] = curve of first compound, second compound 0.00316 µM
[2] = curve of first compound, second compound 0.01 µM
[3] = curve of first compound, second compound 0.0316 µM
[4] = curve of first compound, second compound 0.1 µM
[5] = curve of first compound, second compound 0.316 µM
[6] = curve of first compound, second compound 1 µM
[7] = second compound 0.00316 µM, first compound 0.0316 µM
[8] = second compound 0.00316 µM, first compound 0.1 µM
[9] = second compound 0.00316 µM, first compound 0.316 µM
[10] = second compound 0.00316 µM, first compound 1 µM
[11] = second compound 0.01 µM, first compound 0.0316 µM
[12] = second compound 0.01 µM, first compound 0.1 µM
[13] = second compound 0.01 µM, first compound 0.316 µM
[14] = second compound 0.01 µM, first compound 1 µM
[15] = second compound 0.0316 µM, first compound 0.0316 µM
[16] = second compound 0.0316 µM, first compound 0.1 µM
[17] = second compound 0.0316 µM, first compound 0.316 µM
[18] = second compound 0.0316 µM, first compound 1 µM
[19] = second compound 0.1 µM, first compound 0.0316 µM
[20] = second compound 0.1 µM, first compound 0.1 µM
[21] = second compound 0.1 µM, first compound 0.316 µM
[22] = second compound 0.1 µM, first compound 1 µM
[23] = second compound 0.316 µM, first compound 0.0316 µM
[24] = second compound 0.316 µM, first compound 0.1 µM
[25] = second compound 0.316 µM, first compound 0.316 µM
[26] = second compound 0.316 µM, first compound 1 µM
[27] = second compound 1 µM, first compound 0.0316 µM
[28] = second compound 1 µM, first compound 0.1 µM
[29] = second compound 1 µM, first compound 0.316 µM
[30] = second compound 1 µM, first compound 1 µM

O=C(c1cc(Cc2n[nH]c(=O)c3ccccc23)ccc1F)N1CCN(C(=O)C2CC2)CC1 + CNC(C)C(=O)NC1CN(S(=O)(=O)c2cccc(S(=O)(=O)N3CCC4CCC(C(=O)NC(c5ccccc5)c5ccccc5)N4C(=O)C(NC(=O)C(C)NC)C3)c2)CCC2CCC(C(=O)NC(c3ccccc3)c3ccccc3)N2C1=O
IC50 [1]: 4730 nM
IC50 [2]: > 10000 nM
IC50 [3]: > 10000 nM
IC50 [4]: > 10000 nM
IC50 [5]: > 10000 nM
IC50 [6]: > 10000 nM
viability, T/C [7]: 67%
viability, T/C [8]: 61.7%
viability, T/C [9]: 65.1%
viability, T/C [10]: 66.5%
viability, T/C (second compound 0.00316 µM, first compound 3.16 µM): 60.6%
viability, T/C (second compound 0.00316 µM, first compound 10 µM): 29.6%
viability, T/C [11]: 96%
viability, T/C [12]: 93%
viability, T/C [13]: 105%
viability, T/C [14]: 101%
viability, T/C (second compound 0.01 µM, first compound 3.16 µM): 96.5%
viability, T/C (second compound 0.01 µM, first compound 10 µM): 66.3%
viability, T/C [15]: 98.5%
viability, T/C [16]: 93.7%
viability, T/C [17]: 92%
viability, T/C [18]: 99.9%
viability, T/C (second compound 0.0316 µM, first compound 3.16 µM): 97.8%
viability, T/C (second compound 0.0316 µM, first compound 10 µM): 69.8%
viability, T/C [19]: 89.5%
viability, T/C [20]: 97.6%
viability, T/C [21]: 103%
viability, T/C [22]: 105%
viability, T/C (second compound 0.1 µM, first compound 3.16 µM): 95.6%
viability, T/C (second compound 0.1 µM, first compound 10 µM): 62.4%
viability, T/C [23]: 94.2%
viability, T/C [24]: 99.9%
viability, T/C [25]: 116%
viability, T/C [26]: 111%
viability, T/C (second compound 0.316 µM, first compound 3.16 µM): 104%
viability, T/C (second compound 0.316 µM, first compound 10 µM): 66.7%
viability, T/C [27]: 101%
viability, T/C [28]: 91.2%
viability, T/C [29]: 97%
viability, T/C [30]: 104%
viability, T/C (second compound 1 µM, first compound 3.16 µM): 101%
viability, T/C (second compound 1 µM, first compound 10 µM): 56.6%

COc1c(OCCCN2CCOCC2)ccc2c3n(c(=NC(=O)c4cnc(N)nc4)nc12)CCN3 + CCN1C(C(=O)NC23CCC(C(=O)O)(CC2)CC3)C(c2cccc(Cl)c2F)C2(C(=O)Nc3cc(Cl)ccc32)C12CCCCC2
IC50 (curve of first compound, second compound 0.00949 µM): 719 nM
IC50 (curve of first compound, second compound 0.03 µM): 741 nM
IC50 (curve of first compound, second compound 0.0949 µM): 690 nM
IC50 (curve of first compound, second compound 0.3 µM): 718 nM
IC50 (curve of first compound, second compound 0.949 µM): 614 nM
IC50 (curve of first compound, second compound 3 µM): 543 nM
viability, T/C (second compound 0.00949 µM, first compound 0.00316 µM): 96.8%
viability, T/C (second compound 0.00949 µM, first compound 0.01 µM): 93.6%
viability, T/C (second compound 0.00949 µM, first compound 0.0316 µM): 101%
viability, T/C (second compound 0.00949 µM, first compound 0.1 µM): 72.7%
viability, T/C (second compound 0.00949 µM, first compound 0.316 µM): 66.4%
viability, T/C (second compound 0.00949 µM, first compound 1 µM): 44%
viability, T/C (second compound 0.03 µM, first compound 0.00316 µM): 133%
viability, T/C (second compound 0.03 µM, first compound 0.01 µM): 96%
viability, T/C (second compound 0.03 µM, first compound 0.0316 µM): 94.2%
viability, T/C (second compound 0.03 µM, first compound 0.1 µM): 70.6%
viability, T/C (second compound 0.03 µM, first compound 0.316 µM): 59.8%
viability, T/C (second compound 0.03 µM, first compound 1 µM): 45.8%
viability, T/C (second compound 0.0949 µM, first compound 0.00316 µM): 99.3%
viability, T/C (second compound 0.0949 µM, first compound 0.01 µM): 96.2%
viability, T/C (second compound 0.0949 µM, first compound 0.0316 µM): 90.8%
viability, T/C (second compound 0.0949 µM, first compound 0.1 µM): 77.5%
viability, T/C (second compound 0.0949 µM, first compound 0.316 µM): 67.3%
viability, T/C (second compound 0.0949 µM, first compound 1 µM): 42.1%
viability, T/C (second compound 0.3 µM, first compound 0.00316 µM): 96.8%
viability, T/C (second compound 0.3 µM, first compound 0.01 µM): 96%
viability, T/C (second compound 0.3 µM, first compound 0.0316 µM): 93%
viability, T/C (second compound 0.3 µM, first compound 0.1 µM): 70.6%
viability, T/C (second compound 0.3 µM, first compound 0.316 µM): 65.9%
viability, T/C (second compound 0.3 µM, first compound 1 µM): 44.1%
viability, T/C (second compound 0.949 µM, first compound 0.00316 µM): 108%
viability, T/C (second compound 0.949 µM, first compound 0.01 µM): 105%
viability, T/C (second compound 0.949 µM, first compound 0.0316 µM): 92.4%
viability, T/C (second compound 0.949 µM, first compound 0.1 µM): 75.4%
viability, T/C (second compound 0.949 µM, first compound 0.316 µM): 58.7%
viability, T/C (second compound 0.949 µM, first compound 1 µM): 43.9%
viability, T/C (second compound 3 µM, first compound 0.00316 µM): 106%
viability, T/C (second compound 3 µM, first compound 0.01 µM): 103%
viability, T/C (second compound 3 µM, first compound 0.0316 µM): 81.2%
viability, T/C (second compound 3 µM, first compound 0.1 µM): 80.1%
viability, T/C (second compound 3 µM, first compound 0.316 µM): 64.7%
viability, T/C (second compound 3 µM, first compound 1 µM): 35.7%

C=C(F)C(=O)N1CCN(c2nc(OCC3CCCN3C)nc3c2CCN(c2cccc4cccc(Cl)c24)C3)CC1CC#N (configuration not stated)
viability, T/C (compound 0.0316 µM): 94.3% and 102% and 97.8%
viability, T/C (compound 0.1 µM): 97.6% and 92.2% and 89.2%
viability, T/C (compound 0.316 µM): 101% and 95.3% and 93%
viability, T/C (compound 1 µM): 108% and 93% and 105%
viability, T/C (compound 3.16 µM): 98% and 90.9% and 102%
IC50 (curve of compound): 5590 nM and 6000 nM and 6860 nM

CCN1CCN(Cc2ccc(Nc3ncc(F)c(-c4cc(F)c5nc(C)n(C(C)C)c5c4)n3)nc2)CC1 + CNC(C)C(=O)NC1CN(S(=O)(=O)c2cccc(S(=O)(=O)N3CCC4CCC(C(=O)NC(c5ccccc5)c5ccccc5)N4C(=O)C(NC(=O)C(C)NC)C3)c2)CCC2CCC(C(=O)NC(c3ccccc3)c3ccccc3)N2C1=O
IC50 [1]: > 1000 nM
IC50 [2]: > 1000 nM
IC50 [3]: > 1000 nM
IC50 [4]: > 1000 nM
IC50 [5]: > 1000 nM
IC50 [6]: > 1000 nM
viability, T/C (second compound 0.00316 µM, first compound 0.00316 µM): 104%
viability, T/C (second compound 0.00316 µM, first compound 0.01 µM): 89.2%
viability, T/C [7]: 103%
viability, T/C [8]: 93.9%
viability, T/C [9]: 125%
viability, T/C [10]: 128%
viability, T/C (second compound 0.01 µM, first compound 0.00316 µM): 105%
viability, T/C (second compound 0.01 µM, first compound 0.01 µM): 104%
viability, T/C [11]: 102%
viability, T/C [12]: 99.8%
viability, T/C [13]: 126%
viability, T/C [14]: 132%
viability, T/C (second compound 0.0316 µM, first compound 0.00316 µM): 105%
viability, T/C (second compound 0.0316 µM, first compound 0.01 µM): 93.1%
viability, T/C [15]: 102%
viability, T/C [16]: 108%
viability, T/C [17]: 129%
viability, T/C [18]: 136%
viability, T/C (second compound 0.1 µM, first compound 0.00316 µM): 100%
viability, T/C (second compound 0.1 µM, first compound 0.01 µM): 102%
viability, T/C [19]: 104%
viability, T/C [20]: 109%
viability, T/C [21]: 118%
viability, T/C [22]: 131%
viability, T/C (second compound 0.316 µM, first compound 0.00316 µM): 110%
viability, T/C (second compound 0.316 µM, first compound 0.01 µM): 93.1%
viability, T/C [23]: 101%
viability, T/C [24]: 104%
viability, T/C [25]: 126%
viability, T/C [26]: 140%
viability, T/C (second compound 1 µM, first compound 0.00316 µM): 102%
viability, T/C (second compound 1 µM, first compound 0.01 µM): 105%
viability, T/C [27]: 109%
viability, T/C [28]: 107%
viability, T/C [29]: 129%
viability, T/C [30]: 122%
